Patent publication US20260364213A1, “RADIOLABELED COMPOUNDS OF TRIMETHOPRIM AND USES THEREOF” (THE TRUSTEES OF THE UNIVERSITY OF PENNSYLVANIA, priority 2023, published 2026)
“And” between values parts separate entries of the source, which are not always exact repeats. Equal entries are not always repeated. “Also recorded” adds a separate entry of the source. Where two headings read alike, the source gives them in different places.

Experiments:
I45 and SKOV3 cells = assay: Cytotoxicity in wild-type and eDHFR-YFP-expressing I45 and SKOV3 cells; type: cell-based, human
Protocol: After 72 hours of incubation, the surviving fraction of the cells was quantified using CellTiter-Glo (Promega #G9243). See, Makvandi, Molecular cancer therapeutics. […] The assay was performed three times in triplicates. […] See, Lee, Journal of nuclear medicine.

eDHFR [1] = biological target: T1, eDHFR (Escherichia coli, UniProt P0ABQ4); settings: HEK293T-eDHFR-YFP vs HEK 293 WT; 0.037 MBq, 1 hour; 60 min
T1 sequence (P0ABQ4 1-159): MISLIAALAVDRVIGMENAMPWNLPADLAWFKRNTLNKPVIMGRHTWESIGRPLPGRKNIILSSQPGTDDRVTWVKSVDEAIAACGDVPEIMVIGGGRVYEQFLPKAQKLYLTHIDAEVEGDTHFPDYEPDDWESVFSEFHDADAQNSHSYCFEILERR

eDHFR-YFP = biological target: T2, eDHFR-YFP (Escherichia coli, UniProt P0ABQ4); assay: Radioligand binding to eDHFR-YFP expressing cells; set-up: species or system E. coli; settings: read-out: Kd
T2 sequence (P0ABQ4 1-159): T1 sequence (P0ABQ4 1-159)
Protocol: Due to the high specific activity of [^211At]At-TMP that limits its working concentration to pM range, [^125I]I-TMP was used for saturation binding studies to determine Bmax.
eDHFR-YFP-positive I45 and SKOV3 cells were plated on 96-well plates (Corning #9102) at the density of 25,000 cells/well and 40,000 cells/well, respectively, in complete growth media 24 hours before the assay. […] After incubation at 37 °C for 90 minutes, the wells were aspirated and washed twice with ice-cold PBS. The radioactivity in each well was measured with a Perkin Elmer Wizard gamma counter. The assay was performed three times in triplicates. […] See, Swillens, Molecular pharmacology. 1995; 47(6):1197-203. The corresponding EC50 values were plotted against the receptor concentration/2 to determine the Kd. See, Hulme, British journal of pharmacology. 2010; 161(6):1219-37. The Bmax values were correlated with the total YFP florescence from the wells, with a correction factor of 2.5 and 2.2 for membrane-bound eDHFR-YFP in I45 and SKOV3, respectively, in order to account for decreased fluorescence per molecule from addition of the membrane localization signal to YFP. See, Wu, Science. 2005; 310(5746):310-4; and Bakholdina, Molecules. 2021; 26(13).
For determination of the Kd of [^211At]At-TMP, the binding assay protocol was repeated in I45 and SKOV3 cells expressing cytoplasmic eDHFR-YFP, using 150 μL of 0.06-60 nM [^125I]I-TMP±10 μM TMP for half of each 96-well plate and 50-260 μL of […] [^211At]At-TMP±10 μM TMP for the remaining half. The Bmax of each plate determined from [^125I]I-TMP binding was divided by the assay volumes used for [^211At]At-TMP to calculate the total receptor concentration ([RT]) in each [^211At]At-TMP well. The ligand depletion (δ) in each [^211At]At-TMP well was obtained by dividing the bound radioactivity by total added radioactivity. The assay was performed four times in triplicates. As derived in Supplemental Methods 1, δ^−1 was plotted against [RT]^−1 to determine the Kd as the slope of the linear best-fit line.
Supplemental Method 1. Measurement of the dissociation constant (Kd) of [^211At]At-TMP binding to eDHFR under non-saturating, ligand-depleting conditions. When [Ligand]<<Kd, ligand depletion (6) at equilibrium is
where [R] is the free receptor concentration and [RT]is the total receptor concentration. Since 6 is non-zero, taking the reciprocal of both sides of the equation yields
[formula] • If a δ^−1 vs. [RT]^−1 graph where y=δ^−1 and x=[RT]^−1 is plot,
Therefore, the slope of the linear best-fit line represents the Kd and the y-intercept is 1.

OVCAR8-eDHFR-Luc cells = assay: Kill assay (MTT) in OVCAR8-eDHFR-Luc cells; type: cell-based, human; settings: 18.5 MBq, 1 h; viability to day 12
Protocol: Following the same uptake protocol till washing after the third wash the cells were counted using cell counter and they were diluted to generate even number of cells/mL. […] We've applied the same blocked conditions used in the uptake assay. […] Then cells will be re-distributed into 96 well plates (2,000 cells/well) with fresh media to monitor cell proliferation by MTT assay on days 1, 3, 7 and 10. A total of 9 wells (3×3) were measured on the plate per sample per time point. To complete the assay cell media was removed and replaced with 50 μL of serum free media and 50 μL of MTT reagent. The plates were covered with tin foil and incubated at 37 °C for 3 hours. The plates were shaken at 200 rpm at 37 °C for 15 min. Using the microplate plate reader, sample absorbance was measured at 590 nm for 600 ms. Controls included [^131I]NaI treated cells and blocking with 10 μM parent TMP (unlabeled). An analogous procedure was used for the OVCAR8-eDHFR-Luc kill assay with different doses (1.85-37 MBq) and treatment times.
To investigate the therapeutic potential of m[^131I]mI-TMP 5b in tumor cell lines, OVCAR8 eDHFR+ cells were exposed to varying doses (ranging from 1.85-37 MBq) of the radiotracer of 5b at different incubation times. Different conditions were employed to assess the selective therapeutic effect of the radio tracer on eDHFR+ cells. To determine the specific killing of eDHFR+ tumor cells, blocked conditions were analyzed. The cell viability of compound 5b-treated cells was also compared with the cells exposed to [^131I]I—Na. Additionally, untreated cells were used as controls. The MTT assay was used to measure the cell viability of the cells under the aforementioned conditions on days 1, 3, 7, and 12.
OVCAR8-eDHFR-Luc+ cells were treated with 1.85 and 18.5 MBq of m[^131I]mI-TMP 5b and [^131I]I—Na, incubated for 1 hour. […] The cell viability of the compound 5b-treated cells was similar to cells under blocked, [^131I]NaI, and no drug conditions. See, FIG. 2A. […] See, FIG. 2B. Based on the results obtained, a continued dose escalation was considered to better understand the therapeutic window. Finally, OVCAR_eDHFR+ cells were tested with 37 MBq dose of m[^131I]mI-TMP.

[2] = In vitro stability in RPMI 1640 medium; type: physicochemical; settings: 37 °C, up to 6 hours, radio-HPLC
Protocol: The specific activity of [^211At]At-TMP and [^125I]I-TMP was determined by comparison of radioactivity to the area under 288-nm ultraviolet light peak on radio-HPLC. The in vitro stability of [^211At]At-TMP was examined with incubation in Roswell Park Memorial Institute (RPMI) 1640 medium at 37 °C for up to 6 hours, followed by radio-HPLC analysis.

IMR5 cells = assay: Cytotoxicity in IMR5 cells with subcellular eDHFR-YFP; type: cell-based, human
Protocol: Using standard cloning procedures and DNA sequence synthesis, the recombinant eDHFR protein was modified in the following ways. First, the eDHFR nucleotide sequence was extended with a yellow fluorescent protein (YFP) domain at the C-terminus to construct a fusion eDHFR-YFP protein. See, Sellmyer, Mol Ther 2020; 28:42-51. Then, one of the following localization domains was added: simian virus 40 nuclear localization signal (NLS) at the N-terminus, human immunodeficiency virus Rev protein nuclear export signal (NES) at the C-terminus, and Saccharolobus solfataricus P2 DNA-binding domain 7d (DNAB) at the N-terminus. See, Kobayashi, Antimicrob Agents Chemother 2006; 50:1118-1119; and Kalichuk, Sci Rep 2016; 6:37274. The resulting library of pUC57 plasmids, each containing one of NLS-eDHFR-YFP, eDHFR-YFP-NES, and DNAB-eDHFR-YFP, were successfully cloned into a lentiviral vector. The lentiviral plasmids were introduced into HEK293T cells for viral production and isolation.
Then, three human cancer cell lines were cultured: HCT116 (colorectal cancer), IMR5 (neuroblastoma), and SKOV3 (ovarian cancer). They were transfected with the three lentiviral constructs for expression of NLS-eDHFR-YFP, eDHFR-YFP-NES, and DNAB-eDHFR-YFP, resulting in nine cell lines in total. Subcellular localization of eDHFR-YFP in the cell lines was verified with fluorescence microscopy.
Cytotoxicity experiments were performed as follows: wild-type IMR5 cells as well as those expressing eDHFR-YFP localized to the DNA, nucleus, and cytoplasm were treated with various concentrations of ^211At-PAB-TMP for 72 hours. The survival fraction for each treatment condition was measured with luminescent cell viability assay.
The resulting survival vs. dose curves were analyzed to determine effective concentrations for 50% reduction in cell viability (EC50). See, FIGS. 16A-16C. […] See, FIGS. 16A-16C. […] 6; 20(7): 1752-1755.

eDHFR [3] = biological target: T1, eDHFR; type: cell-based; settings: for affinity for eDHFR binding in cells: HCT116 cells, non-radiolabeled, vs para-benzyl-iodo-TMP; for EC50: read-out: EC50 for eDHFR binding, HCT-116 cells, tsLuc-DD-DHFR, compounds not radiolabeled
Serum stability in FBS = type: in vitro ADME; settings: non-radioactive compound, FBS, 37 °C, 72 h
Protocol: In vitro serum stability of was performed by adding the [^131I]mI-TMP (50 μL, 1.85 MBq) to fetal bovine serum (500 μL). The mixture was then incubated in a ThermoMixer (800 rpm) at 37 °C, and deiodination was analyzed by radio-TLC (10% NH40Ac:MeOH=3:7) at 0, 24, and 72 h. In this condition, free I-131 moved to solvent front whereas intact [^131I]I-TMP remained at the origin.

eDHFR [4] = biological target: T1, eDHFR; assay: Differential scanning fluorimetry (thermal shift assay); type: binding; settings: 0.1 mg/mL protein, 10 mM stock compound, 20-95 °C ramp
Protocol: Purified protein is diluted to 0.1 mg/mL protein in 500 μL in mild buffer, 25 mM HEPES pH=7.5, 200-500 mM NaCl, DTT. 17 μL of the 0.1 mg/mL protein sample is aliquoted into an opaque white 384 well PCR plate. Then 2 μL of stabilizing additive or 1 μL additive and 1 μL of concentrated drug (10 mM TMP or 10 mM cold mI-TMP or vehicle, plus 1 μL of 1×SYPRO Orange dye was added and the total well volume is 20 μL. The plate is sealed with clear optical cover, protect it from light with foil, and let it incubate for 5 minutes. Then the plate is centrifuged at 3,600×g for 2 minutes. The plate is analyzed on RT-PCR machine using a temperature-ramp method that ranges from 20-95 °C.

Molecule: COc1cc(Cc2cnc(N)nc2N)cc(OC)c1OC [TMP, trimethoprim]
- cytotoxicity at the lowest TMP concentration (I45 and SKOV3 cells; 40 μM, all cell types): non-toxic
- cytotoxicity from non-radiolabeled TMP in cells expressing membrane-bound eDHFR-YFP (I45 and SKOV3 cells; 72 h): higher cytotoxicity

Molecule: COc1cc(Cc2cnc(N)nc2N)cc([125I])c1OC [[^125I]mI-TMP, 5-(3-iodo-4,5-dimethoxybenzyl)pyrimidine-2,4-diamine]
- uptake of the radiotracer in eDHFR+ cells relative to WT cells (eDHFR [1]): ~ 50 fold and ~ 30 fold
- Kd (eDHFR-YFP; I45 cells): 0.65 ± 0.11 nM
- Kd (eDHFR-YFP; SKOV3 cells): 0.13 ± 0.17 nM

Molecule: [131I-].[Na+] [[^131I]I—Na, reference compound]
- cytotoxic effect / cell viability (OVCAR8-eDHFR-Luc cells): showed viability and significant growth

Molecule: COc1cc(Cc2cnc(N)nc2N)cc([211At])c1OC [[^211At]At-TMP]
- in vitro stability in aqueous media [2]: stability of [^211At]TMP in aqueous media for up to 6 hours

Molecule: COc1cc(Cc2cnc(N)nc2N)cc(OC)c1OCc1ccc([211At])cc1 [^211At-PAB-TMP, ^211At-para-astatobenzyl-trimethoprim]
- cytotoxicity by eDHFR-YFP subcellular location (IMR5 cells; IMR5 cells, 72 hours, luminescent viability): Higher cytotoxicity was seen with increasing proximity to DNA, resulting in significantly lower EC50 values; also recorded: highest in the IMR5 cells expressing DNA-bound eDHFR-YFP, followed by nuclear and cytoplasmic eDHFR-YFP

Molecule: O=C1NCCn2c(-c3ccc([211At])cc3)nc3cccc1c32 [^211At-PTT, reference compound]
- difference in cytotoxicity among the eDHFR IMR5 cells (IMR5 cells; positive control): no difference in cellular toxicity; also recorded: did not result in difference in cytotoxicity among the IMR5 cells

Molecule: COc1cccc2c1C(=O)c1c(O)c3c(c(O)c1C2=O)C[C@@](O)(C(=O)CO)C[C@@H]3O[C@H]1C[C@H](N)[C@H](O)[C@H](C)O1 [doxorubicin, reference compound]
- cytotoxicity of doxorubicin, wild-type vs eDHFR-YFP-expressing cells (I45 and SKOV3 cells; 72 h, 10 nM-1 μM): comparable cytotoxicity; also recorded: comparable chemosensitivity

Molecule: COc1cc(Cc2cnc(N)nc2N)cc(Br)c1OC [mBr-TMP]
- affinity for eDHFR binding in cells (eDHFR [3]): higher affinity for eDHFR binding in cells than the para-benzyl-iodo-TMP
- EC50 (eDHFR [3]): 5 nM

Molecule: COc1cc(Cc2cnc(N)nc2N)cc(I)c1OC [mI-TMP, 5-(3-iodo-4,5-dimethoxybenzyl)pyrimidine-2,4-diamine]
- stability in FBS by LCMS (Serum stability in FBS): confirmed the stability of TMP-I (3a) in FBS
- affinity for eDHFR binding in cells (eDHFR [3]): higher affinity for eDHFR binding in cells than the para-benzyl-iodo-TMP
- EC50 (eDHFR [3]): 5 nM
- stabilization of eDHFR in thermal shift assay (DSF) (eDHFR [4]): stabilizes eDHFR as TMP
- stabilization of eDHFR in thermal shift assay (DSF) (eDHFR [4]; listed as TMP-I (3b)): strongly stabilizes eDHFR, similar to TMP

Molecule: ^211At-para-astatobenzyl-trimethoprim [^211At-PAB-TMP]
- killing of eDHFR expressing neuroblastoma cells (IMR5 cells): enhanced killing of eDHFR expressing neuroblastoma cells
